Reference: publication PMC11306511, “Combining VPS34 inhibitors with STING agonists enhances type I interferon signaling and anti‐tumor efficacy” (Molecular Oncology, 2024)

How the values were obtained:
VPS34 [1] = biological target: T1, VPS34 (Homo sapiens, UniProt Q8NEB9); experiment: biochemical
Protocol: (§1) Compound dilution series was prepared in DMSO and further diluted to 4× final assay concentration in assay buffer (Buffer Q #PV5125, Thermo Fisher, supplemented with 2 mM DTT and 2 mM MnCl2). 2.5 μL of the diluted compounds were added to a 384‐well assay plate followed by 2.5 μL of 16.5 nM VPS34 enzyme (#PV5126; Thermo Fisher) and incubated for 15 min. Five microliters of substrate mix (20 μM ATP #PV3227 and 200 μM PI : PS substrate #PV5122; Thermo Fisher) in assay buffer was added, mixed, and incubated for 1 h. Five microliters of stop‐detection mix (Adapta kinase assay #PV5099; Thermo Fisher) were added, mixed, and incubated for 30 min and read with Artemis microplate reader. Percent remaining activity as compared to DMSO‐treated control samples was calculated and IC50 values were generated using […] PRISM (GraphPad Software, Inc., San Diego, CA, USA). The NanoBRET assay was performed using the manufacturer's protocol. Briefly, 293T cells were transfected with the Kinase‐NanoLuc® Fusion Vector DNA overnight. The next day cells were treated with compound and the NanoBRET tracer reagent and then read out measuring donor and acceptor emission wavelength (450 and 610 nm).

pKa = type: physicochemical; settings: read-out: pKa (weakly basic)
Protocol: (§2) Experiments were conducted at Aragen Life Sciences Ltd. (Hyderabad, India) according to internal standard procedures.

CCL5 and CXCL10 = experiment: Plasma CCL5/CXCL10 in Renca tumor-bearing mice (Mesoscale Discovery); type: in vivo, mouse; settings: Renca tumor-bearing BALB/c mice, 20 mg·kg^−1 oral daily, vs vehicle
Text: Study protocols were approved by the Institutional Animal Care and Use Committee of CrownBio in China (AN‐1903‐05‐313) or the LIH's animal welfare committee in Luxembourg (agreement LECR‐2018‐12). Mice were handled according to European Union guidelines, adhering to the principles of replacement, reduction, and refinement (3Rs). Animals were housed in appropriate accommodations conducive to their well‐being, with provisions for housing, feeding, and environmental enrichment to meet their physical and behavioral needs. Highly skilled personnel were involved in carrying out procedures related to the animal experiments to ensure proper care and handling. […] Tumor growth was measured using a caliper every other day and estimated as follows: volume (cm^3) = (width)^2 × length × 0.5.
Cell culture medium was centrifuged at 300 g for 10 min at 4 °C and supernatant stored at −80 °C. […] Cytokine levels were quantified using Mesoscale Discovery (MSD) assays: human CCL5 (#F21ZN), CXCL10 (#K151UFK), IFNβ (#K151VIK); mouse CCL5 (#K152A2K) and CXCL10 (#K152UFK). Low concentrations of human IFNβ were determined using High‐Sensitivity IFNβ ELISA (#41415‐1; PBL Assay Science, Piscataway, NJ, USA). CCL5/CXCL10 levels in some experiments were quantified using R&D Systems (Minneapolis, MN, USA) ELISAs: human CCL5 (#DY278) or CXCL10 (#DY266); mouse CCL5 (#DY478).

VPS34 [2] = biological target: T1, VPS34; experiment: cell-based
Protocol: as §1

Renca tumors = experiment: NanoString gene expression and network enrichment analysis of Renca tumors; type: in vivo, mouse
Text: (§3) Study protocols were approved by the Institutional Animal Care and Use Committee of CrownBio in China (AN‐1903‐05‐313) or the LIH's animal welfare committee in Luxembourg (agreement LECR‐2018‐12). Mice were handled according to European Union guidelines, adhering to the principles of replacement, reduction, and refinement (3Rs). Animals were housed in appropriate accommodations conducive to their well‐being, with provisions for housing, feeding, and environmental enrichment to meet their physical and behavioral needs. Highly skilled personnel were involved in carrying out procedures related to the animal experiments to ensure proper care and handling. Female 6 to 8‐week‐old BALB/c (supplied by Shanghai Lingchang Biotechnology Co., Shanghai, China; n = 14) or C57BL/6 mice (supplied by Janvier Labs, Le Genest‐Saint‐Isle, France; n = 40) were injected into the right flank with 1 × 10^6 Renca or 0.2 × 10^6 B16‐F10 cells, respectively, resuspended in 100 μL PBS (day 0). When tumors were palpable (day 9 for Renca, day 7 for B16‐F10 tumors), mice were randomly assigned into two groups for the Renca model with n = 6 (vehicle) and n = 8 (SB02024) or four groups for the B16‐F10 model with n = 10. Daily treatment with 20 mg·kg^−1 SB02024 or vehicle (0.5% methylcellulose in water supplemented with 1% Tween‐80) was administered by oral gavage (day 9–16 for Renca, day 7–16 for B16‐F10 model). For combination studies, ADU‐S100 (10 μg in 40–50 μL PBS) or vehicle (PBS) treatment was administered by intratumoral injection (days 9, 11, 13, and 15). Tumor growth was measured using a caliper every other day and estimated as follows: volume (cm^3) = (width)^2 × length × 0.5.
Renca tumor RNA was isolated using the Rneasy Plus kit (#74134; Qiagen, Venlo, the Netherlands), quantified using a NanoDrop spectrophotometer (Thermo Fisher), and 100 ng was used as input for the nCounter PanCancer IO 360 mouse panel (NanoString Technologies, Seattle, WA, USA). Data were analyzed by NanoString's data analysis service. Network enrichment analysis (NEA) was carried out by Evi‐networks, Sweden (see detailed description in Table S2).

[3] = CaCo2 monolayer permeability assay; type: in vitro ADME; settings: human, Caco-2
Protocol: as §2

A-498 cells = experiment: IFN/cytokine gene expression (qRT-PCR) and secretion (MSD) in A-498 cells; type: cell-based, human; settings: 2 μM, 24 h, vs DMSO
Protocol: RNA was isolated using the PureLink kit (#12183018A; Thermo Fisher) and DNA‐binding columns (Rneasy plus kit, #74134; Qiagen) and/or Dnase treatment (#12185010; Thermo Fisher). After quantification using NanoDrop, 50 ng·μL^−1 RNA was used for cDNA synthesis with SuperScript IV VILO Master Mix (#11756050; Thermo Fisher). Quantitative RT‐PCR was run with diluted cDNA (1 : 25 or 1 : 12.5), PowerUp SYBR Green Master Mix (#A25741; Thermo Fisher), and 200 nM primers (see Table S3) on a CFX Connect RT‐PCR system (BioRad, Hercules, CA, USA). Data were analyzed using the ΔΔCT method.
Cell culture medium was centrifuged at 300 g for 10 min at 4 °C and supernatant stored at −80 °C. Mouse blood was collected at termination in K2‐EDTA tubes on ice, centrifuged at 1270 g for 10 min at 4 °C, and plasma was stored at −80 °C. Cytokine levels were quantified using Mesoscale Discovery (MSD) assays: human CCL5 (#F21ZN), CXCL10 (#K151UFK), IFNβ (#K151VIK); mouse CCL5 (#K152A2K) and CXCL10 (#K152UFK). Low concentrations of human IFNβ were determined using High‐Sensitivity IFNβ ELISA (#41415‐1; PBL Assay Science, Piscataway, NJ, USA). CCL5/CXCL10 levels in some experiments were quantified using R&D Systems (Minneapolis, MN, USA) ELISAs: human CCL5 (#DY278) or CXCL10 (#DY266); mouse CCL5 (#DY478).

[4] = PK profiling in H1299-GFP-2xFYVE tumor-bearing mice (plasma and tumor); type: in vivo, mouse
Protocol: (§4) The study was performed by Truly Translational AB (Lund, Sweden) following Swedish legislations and approved by the ethical committee Malmö/Lunds djurförsöksetiska nämnd (M120‐15). Animals were housed 5/cage in polysulfone IVC cages at a constant temperature with 12 h light‐dark cycles and free access to food, tap water, and cage enrichment. Animals were allowed to acclimatize to the housing conditions for at least a week before the start of experiments. Female 8‐week‐old NOD.Cg‐Prkdc^ scid Il2rg^ tm1Sug /JicTac (CIEA‐NOG®) mice (supplied by Taconic Biosciences, Rensselaer, NY, USA; n = 42) were implanted subcutaneously with 1.75 × 10^6 H1299‐GFP2xFYVE cells in serum‐free RPMI in 50% Matrigel. When tumors reached 300–400 mm^3 mice were randomized and dosed with 9 or 29 mg·kg^−1 SB02024 or vehicle (PEG 200 (98%)/Polysorbate (2%)). At indicated time points after dosing, blood samples were taken by heart puncture and tumors were removed. Pharmacokinetic (PK) analysis (plasma and tumor samples) was performed by Q&Q Labs (Gothenburg, Sweden). Plasma was precipitated with acetonitrile, and after centrifugation, the soluble material was recovered. Tumor of 50–150 mg was homogenized mechanically in the presence of 5× acetonitrile relative to tissue weight using Precellys Tissue Homogenizer (Bertin Technologies, Montigny‐le‐Bretonneux, France). Samples were centrifuged and soluble material was kept for further analysis. SB02024 levels were determined using UHPLC‐QQQ: Agilent 6460 (LC–MS/MS; Agilent Technologies, Santa Clara, CA, USA). Pharmacodynamic (PD) analysis of GFP2xFYVE punctae was performed by Offspring Biosciences (Södertalje, Sweden). H1299‐GFP2xFYVE tumors were fixed by immersion in 4% formalin in PBS for 72 h at 4 °C, sampled randomly by six biopsies (diameter 1 mm), and reassembled into three separate tumor microarrays (TMAs). Each TMA block was sectioned and analyzed at eight equally spaced levels. The immunohistochemical staining was performed using the Ventana Discovery XT protocol. […]

B16-F10 tumors = experiment: Tumor growth inhibition study, B16-F10 tumor-bearing mice; type: in vivo, mouse; settings: B16-F10 in C57BL/6 mice; SB02024 20 mg·kg^−1 oral daily day 7-16; ADU-S100 10 μg intratumoral days 9, 11, 13, 15
Text: as §3, with “Daily treatment with 20 mg·kg^−1 SB02024 or vehicle (0.5% methylcellulose in water supplemented with 1% Tween‐80) was administered by oral gavage (day 9–16 for Renca, day 7–16 for B16‐F10 model). For combination studies, ADU‐S100 (10 μg in 40–50 μL PBS) or vehicle (PBS) treatment was administered by intratumoral injection (days 9, 11, 13, and 15).” left out

PXR = biological target: T2, PXR (Homo sapiens, UniProt O75469); experiment: CYP3A4 induction, PXR; type: in vitro ADME
T2 sequence (O75469 1-434): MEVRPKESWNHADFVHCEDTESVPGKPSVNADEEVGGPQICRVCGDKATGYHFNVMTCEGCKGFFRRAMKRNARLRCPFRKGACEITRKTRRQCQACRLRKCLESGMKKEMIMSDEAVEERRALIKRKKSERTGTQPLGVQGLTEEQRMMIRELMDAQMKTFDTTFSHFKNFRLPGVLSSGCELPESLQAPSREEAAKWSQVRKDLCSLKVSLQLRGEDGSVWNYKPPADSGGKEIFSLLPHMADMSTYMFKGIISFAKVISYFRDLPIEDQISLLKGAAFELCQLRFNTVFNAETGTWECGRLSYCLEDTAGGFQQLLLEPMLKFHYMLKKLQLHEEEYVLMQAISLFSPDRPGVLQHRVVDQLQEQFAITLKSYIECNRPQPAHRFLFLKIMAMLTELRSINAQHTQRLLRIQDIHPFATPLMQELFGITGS
Protocol: as §2

VPS34 activity = experiment: PD: GFP-2xFYVE puncta in H1299 tumors (immunohistochemistry); type: in vivo, mouse; settings: 9 or 29 mg·kg^−1 oral
Protocol: as §4, with “Tumor of 50–150 mg was homogenized mechanically in the presence of 5× acetonitrile relative to tissue weight using Precellys Tissue Homogenizer (Bertin Technologies, Montigny‐le‐Bretonneux, France). Samples were centrifuged and soluble material was kept for further analysis.” left out, “Pharmacodynamic (PD) analysis of GFP2xFYVE punctae was performed by Offspring Biosciences (Södertalje, Sweden). H1299‐GFP2xFYVE tumors were fixed by immersion in 4% formalin in PBS for 72 h at 4 °C, sampled randomly by six biopsies (diameter 1 mm), and reassembled into three separate tumor microarrays (TMAs).” left out, “levels.” for “levels. The immunohistochemical staining was performed using the Ventana Discovery XT protocol.”

[5] = 20 mg·kg^−1, NanoString, vs vehicle

T1 sequence (Q8NEB9 whole entry): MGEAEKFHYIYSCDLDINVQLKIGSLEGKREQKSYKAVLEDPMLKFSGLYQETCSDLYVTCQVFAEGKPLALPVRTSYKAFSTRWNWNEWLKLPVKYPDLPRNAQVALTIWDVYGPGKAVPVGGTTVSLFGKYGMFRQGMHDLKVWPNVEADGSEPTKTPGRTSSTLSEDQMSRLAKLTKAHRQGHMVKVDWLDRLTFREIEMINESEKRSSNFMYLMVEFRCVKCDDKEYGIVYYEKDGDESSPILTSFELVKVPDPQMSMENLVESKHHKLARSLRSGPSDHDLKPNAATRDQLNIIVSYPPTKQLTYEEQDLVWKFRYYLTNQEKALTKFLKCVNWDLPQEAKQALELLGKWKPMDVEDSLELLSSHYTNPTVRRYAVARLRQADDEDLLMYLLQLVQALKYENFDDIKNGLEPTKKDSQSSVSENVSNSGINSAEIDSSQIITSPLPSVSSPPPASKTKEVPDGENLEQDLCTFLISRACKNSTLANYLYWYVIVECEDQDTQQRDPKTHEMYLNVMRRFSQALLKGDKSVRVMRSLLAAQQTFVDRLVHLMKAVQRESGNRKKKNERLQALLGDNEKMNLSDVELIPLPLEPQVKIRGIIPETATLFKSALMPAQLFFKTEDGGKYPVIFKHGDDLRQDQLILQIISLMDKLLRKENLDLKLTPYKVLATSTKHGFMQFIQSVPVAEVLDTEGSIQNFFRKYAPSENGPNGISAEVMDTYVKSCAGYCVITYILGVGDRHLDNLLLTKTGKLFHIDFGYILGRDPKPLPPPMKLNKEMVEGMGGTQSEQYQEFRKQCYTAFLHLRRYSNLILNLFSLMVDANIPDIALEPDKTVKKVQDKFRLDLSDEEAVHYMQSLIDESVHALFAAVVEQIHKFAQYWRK

## C[C@@H]1COCCN1c1cc(N2CCCC[C@@H]2C(F)(F)F)[nH]c(=O)c1 [SB02024]
VPS34 [1]
  IC50: 5 nM
pKa
  pKa: 2.2
CCL5 and CXCL10
  CCL5 and CXCL10 in blood plasma: significant increase
VPS34 [2]
  IC50: 5.7 nM
Renca tumors; [5]
  Ptprc gene expression (CD45+ cells) in Renca tumors: significantly increased
  gene signatures for cytotoxic cells, T cells, total and CD56dim NK cells, macrophages, neutrophils: significant increase
Renca tumors; NEA, r-mmu-3134975 as printed, treated tumors vs vehicle controls
  Reactome gene signature for STING-mediated signaling, enrichment: enrichment
Renca tumors; NEA, treated tumors vs vehicle controls
  STAT1 and IFN gene signature for ICB sensitivity (Zemek et al.), enrichment: significantly enriched
[3]
  Papp A→B: 51 ×10⁻⁶ cm/s
  efflux ratio: 0.9
A-498 cells
  transcription of IFNB1 and ISGs IRF1, IRF7, IRF9: significantly increased
[4]; female, NOD.Cg-Prkdc scid Il2rg tm1Sug/JicTac (CIEA-NOG), mouse, oral 29 mg·kg^−1, plasma and tumor, H1299-GFP-2xFYVE tumor-bearing CIEA NOG mice
  Cmax: ~10 µM
[4]; female, NOD.Cg-Prkdc scid Il2rg tm1Sug/JicTac (CIEA-NOG), mouse, oral 29 mg·kg^−1, tumor and plasma concentrations
  half-life: 2.5 h
[4]; oral 29 mg·kg^−1, plasma and tumor
  time of Cmax: 2 h
B16-F10 tumors
  % TGI (percent tumor growth inhibition compared to vehicle control): 27%
PXR
  induction of CYP3A4 (in words): no induction
VPS34 activity
  duration of inhibition of GFP-2xFYVE puncta formation: about 8 h
